From patent publication US7932283B2, “Fungicide N-cyclopropyl-sulfonylamide derivatives” (Bayer Cropscience AG, priority 2006, dated 2011)

What was measured:
Pyrenophora teres = experiment: In vivo test on Pyrenophora teres (barley net blotch); settings: 288 h, barley plants (Express variety), grading 12 days after contamination, good (at least 70%) or total protection
Protocol: In Vivo Test on Pyrenophore teres (Barley Net Blotch)
(§1) The active ingredients tested are prepared by homogenisation in a mixture of acetone/tween/DMSO, then diluted with water to obtain the desired active material concentration. Barley plants (Express variety) in starter cups, sown on a 50/50 peat soil-pozzolana substrate and grown at 12° C., are treated at the 1-leaf stage (10 cm tall) by spraying with the active ingredient prepared as described above. Plants, used as controls, are treated with the mixture of acetone/tween/DMSO/water not containing the active material.
After 24 hours, the plants are contaminated by spraying them with an aqueous suspension of Pyrenophora teres spores (12,000 spores per ml). The spores are collected from a 12-day-old culture. The contaminated barley plants are incubated for 24 hours at about 20° C. and at 100% relative humidity, and then for 12 days at 80% relative humidity.

[1] = test system: Mycosphaerella graminicola; experiment: In vivo test on Mycosphaerella graminicola (wheat leaf spot); settings: Zymoseptoria tritici, wheat plants (Scipion variety), grading 21 to 28 days after contamination, good (at least 70%) or total protection, read-out: protection (% of efficacy)
Protocol: In vivo Test on Mycosphaerella graminicola (Wheat Leaf Spot)
The active ingredients tested are prepared by homogenisation in a mixture of acetone/tween/DMSO, and then diluted with water to obtain the desired active material concentration.
Wheat plants (Scipion variety), sown on a 50/50 peat soil-pozzolana substrate in starter cups and grown at 12° C., are treated at the 1-leaf stage (10 cm tall) by spraying with the active ingredient prepared as described above.
Plants, used as controls, are treated with the mixture of acetone/tween/DMSO/water not containing the active material.
After 24 hours, the plants are contaminated by spraying them with an aqueous suspension of Mycosphaerella graminicola spores (500 000 spores per ml). The spores are collected from a 7-day-old culture. The contaminated wheat plants are incubated for 72 hours at 18° C. and at 100% relative humidity, and then for 21 to 28 days at 90% relative humidity.
Grading (% of efficacy) is carried out 21 to 28 days after the contamination, in comparison with the control plants.

Puccinia recondita = experiment: In vivo test on Puccinia recondita f. sp. tritici (wheat brown rust); settings: 240 h, wheat plants (Scipion variety), grading 10 days after contamination, good (at least 70%) or total protection
Protocol: In vivo Test on Puccinia reconditef. Sp. tritici (Wheat Brown Rust)
as §1, with “Wheat” for “Barley”, “(Scipion” for “(Express”, “on” for “on a”
After 24 hours, the plants are contaminated by spraying the leaves with an aqueous suspension of Puccinia recondita spores (100,000 spores per ml). The spores are collected from a 10-day-old contaminated wheat and are suspended in water containing 2.5 ml/of tween 80 10%. The contaminated wheat plants are incubated for 24 hours at 20° C. and at 100% relative humidity, and then for 10 days at 20° C. and at 70% relative humidity. Grading is carried out 10 days after the contamination, in comparison with the control plants.

[2] = logP by HPLC on reversed-phase column (C 18), EEC Directive 79/B31 Annex V.A8, methods A and B; type: physicochemical; settings: reversed-phase HPLC column (C 18), linear gradient 10% to 90% acetonitrile
Protocol: Calibration was carried out using unbranched alkan-2-ones (having 3 to 16 carbon atoms) with known logP values (determination of the logP values by the retention times using linear interpolation between two successive alkanones).

Podosphaera leucotricha = experiment: In vivo test on Podosphaera leucotricha (apple mildew), preventive spray; settings: 240 h, apple young plants, evaluated 10 days after inoculation, good (at least 70%) to total protection
Protocol: In Vivo Test on Podosphaera leucotncha (Apple Mildew) [table] To produce a suitable preparation of active compound, 1 part by weight of active compound is mixed with the stated amounts of solvent and emulsifier, and the concentrate is diluted with water to the desired concentration. Young plants are sprayed with the preparation of active compound at the stated rate of application. After the spray coating has dried on, the plants are inoculated with an aqueous spore suspension of the causal agent of apple mildew (Podosphaera leucobicha). The plants are then placed in a greenhouse at approximately 23° C. and a relative atmospheric humidity of approximately 70%. The test is evaluated 10 days after the inoculation. Under these conditions, good (at least 70%) to total protection is observed at a dose of 100 ppm with the following compounds: 104, 160, 176, 177, 180, 186, 187, 188, 192, 194, 196, 198, 203, 204, 205, 207, 209, 210, 211, 212, 213, 218 and 446.

[3] = LogP method B: HPLC reversed-phase C 18, 40° C., 0.1% aqueous formic acid / acetonitrile
[4] = HPLC reversed-phase C 18, method B: 40° C., 0.1% aqueous formic acid and acetonitrile
[5] = HPLC reversed-phase C 18, method A: 43° C., 0.1% aqueous phosphoric acid, acetonitrile

chromatographic logP [2, 3]	SMILES	pest or weed control at 500 ppm (Pyrenophora teres) [%]	pest or weed control at 500 ppm [1] [%]	pest or weed control at 500 ppm (Puccinia recondita) [%]	other results
	Cc1cccc(Oc2ccc(S(=O)(=O)N(C(=O)c3cn(C)nc3C(F)F)C3CC3)cc2)c1 [Compound 254]	≥ 70	≥ 70		
3.5	CCOc1nn(C)cc1C(=O)N(C1CC1)S(=O)(=O)c1ccc(Oc2ccc(OC)c(OC)c2)c(O)c1 [Compound 528]		≥ 70	≥ 70	
	COc1nn(C)cc1C(=O)N(C1CC1)S(=O)(=O)c1ccc2c(c1)CCC(C)(C)O2 [Compound 457]		≥ 70	≥ 70	
4.5	CCOc1nn(C)cc1C(=O)N(C1CC1)S(=O)(=O)c1ccc(Oc2ccc(Br)cc2)c(O)c1 [Compound 552]		≥ 70	≥ 70	
	CCc1nn(C)c(F)c1C(=O)N(C1CC1)S(=O)(=O)c1ccc(C(F)(F)F)cc1Br [Compound 375]	≥ 70	≥ 70		chromatographic logP [2, 4]: 3.6
	Cc1nn(C)c(F)c1C(=O)N(C1CC1)S(=O)(=O)c1ccc(C(F)(F)F)cc1 [Compound 188]				pest or weed control at 100 ppm (Podosphaera leucotricha): ≥ 70%; chromatographic logP [2, 5]: 3.1
4	CCOc1nn(C)cc1C(=O)N(C1CC1)S(=O)(=O)c1ccc(Oc2ccc(O)cc2)cc1O [Compound 535]		≥ 70		
5	CCOc1nn(C)cc1C(=O)N(C1CC1)S(=O)(=O)c1ccc(Cc2cc(O)cc(O)c2)c(O)c1 [Compound 559]		≥ 70	≥ 70	
4.8	CCOc1nn(C)cc1C(=O)N(C1CC1)S(=O)(=O)c1ccc(Oc2ccc(O)c(C(F)(F)F)c2)c(Cl)c1 [Compound 556]		≥ 70	≥ 70	
	COc1nn(C)cc1C(=O)N(C1CC1)S(=O)(=O)c1ccc(Oc2ccc(Br)cc2)cc1 [Compound 269]	≥ 70		≥ 70	
	Cn1nc(C(F)(F)F)c(C(=O)N(C2CC2)S(=O)(=O)c2cccc(Cl)c2F)c1F [Compound 358]		≥ 70		chromatographic logP [2, 4]: 3.2
	Cn1nc(C(F)(F)F)c(C(=O)N(C2CC2)S(=O)(=O)c2cccc(O)c2O)c1F [Compound 357]	≥ 70			chromatographic logP [2, 4]: 3.3
	Cc1nn(C)c(F)c1C(=O)N(C1CC1)S(=O)(=O)c1c(O)cccc1O [Compound 218]				pest or weed control at 100 ppm (Podosphaera leucotricha): ≥ 70%; chromatographic logP [2, 5]: 2.52
	CCOc1nn(C)cc1C(=O)N(C1CC1)S(=O)(=O)c1ccc(Oc2cccc(C(F)(F)F)c2)cc1 [Compound 264]		≥ 70	≥ 70	
	COc1nn(C)cc1C(=O)N(C1CC1)S(=O)(=O)c1ccc(Oc2ccc(Cl)cc2)cc1Cl [Compound 501]	≥ 70	≥ 70		
4	CC/C=N/N(C)/C(F)=C/C(=O)N(C1CC1)S(=O)(=O)c1csc(O)c1O [Compound 438]		≥ 70		
	COc1nn(C)cc1C(=O)N(C1CC1)S(=O)(=O)c1ccc(-c2cccc3ccccc23)cc1 [Compound 258]	≥ 70	≥ 70		
	CCc1nn(C)c(F)c1C(=O)N(C1CC1)S(=O)(=O)c1ccc(C(C)(C)C)cc1 [Compound 381]	≥ 70			

chromatographic logP [2, 3]	SMILES	pest or weed control at 500 ppm (Pyrenophora teres) [%]	pest or weed control at 500 ppm [1] [%]	pest or weed control at 500 ppm (Puccinia recondita) [%]	other results
	COc1nn(C)cc1C(=O)N(C1CC1)S(=O)(=O)c1ccc(Oc2cccc(N(C)C)c2)c(Cl)c1 [Compound 502]		≥ 70	≥ 70	
	CCOc1nn(C)cc1C(=O)N(C1CC1)S(=O)(=O)c1ccc2c(c1)CCC(C)(C)O2 [Compound 524]		≥ 70	≥ 70	
	COc1nn(C)cc1C(=O)N(C1CC1)S(=O)(=O)c1ccc(Sc2ccccc2)cc1 [Compound 266, N-cyclopropyl-3-methoxy-1-methyl-N-{[4-(phenylthio)phenyl]sulfonyl}-1H-pyrazole-4-carboxamide]	≥ 70		≥ 70	
	CCc1nn(C)c(F)c1C(=O)N(C1CC1)S(=O)(=O)c1ccccc1C(F)(F)F [Compound 377]		≥ 70		chromatographic logP [2, 4]: 2.9
4.3	CCOc1nn(C)cc1C(=O)N(C1CC1)S(=O)(=O)c1ccc(Oc2cccc(C(F)(F)F)c2F)c(O)c1 [Compound 547]		≥ 70	≥ 70	
	COc1nn(C)cc1C(=O)N(C1CC1)S(=O)(=O)c1ccc(Oc2ccc(C(F)(F)F)cc2)cc1 [Compound 268]	≥ 70			
	COc1nn(C)cc1C(=O)N(C1CC1)S(=O)(=O)c1c(O)cc(C(F)(F)F)cc1O [Compound 396]	≥ 70			chromatographic logP [2, 4]: 3
3.9	Cn1nc(C(F)(F)F)c(C(=O)N(C2CC2)S(=O)(=O)c2c(O)sc(O)c2Br)c1F [Compound 436]	≥ 70			
4.1	CCOc1nn(C)cc1C(=O)N(C1CC1)S(=O)(=O)C1C=CC(OC2=CC=C(C(F)(F)F)CC2)=CC1O (centres unmarked) [Compound 538]		≥ 70		
	Cc1nn(C)c(F)c1C(=O)N(C1CC1)S(=O)(=O)c1cccnc1O [Compound 446]				pest or weed control at 100 ppm (Podosphaera leucotricha): ≥ 70%; chromatographic logP ([2]; LogP method A: HPLC reversed-phase C 18, 43° C., 0.1% aqueous phosphoric acid / acetonitrile): 1.96
	Cc1nc(C(=O)N(C2CC2)S(=O)(=O)c2ccc(Oc3ccccc3)cc2)c(C(F)(F)F)o1 [Compound 49]		≥ 70	≥ 70	
4.1	CCOc1nn(C)cc1C(=O)N(C1CC1)S(=O)(=O)c1ccc(Oc2cccc(N(C)C)c2)c(O)c1 [Compound 539]		≥ 70	≥ 70	
3.6	CCOc1nn(C)cc1C(=O)N(C1CC1)S(=O)(=O)c1ccc(Oc2ccccc2)cc1O [Compound 530]		≥ 70		
	COc1nn(C)cc1C(=O)N(C1CC1)S(=O)(=O)c1ccccc1O [Compound 211]				pest or weed control at 100 ppm (Podosphaera leucotricha): ≥ 70%; chromatographic logP [2, 5]: 1.94
4.4	CCOc1nn(C)cc1C(=O)N(C1CC1)S(=O)(=O)c1ccc(Oc2ccc(C(F)(F)F)cc2)c(Br)c1 [Compound 550]		≥ 70	≥ 70	
4.3	CCOc1nn(C)cc1C(=O)N(C1CC1)S(=O)(=O)c1ccc(Oc2cccc(O)c2)c(O)c1 [Compound 546]	≥ 70		≥ 70	
	CCCCOc1ccc(S(=O)(=O)N(C(=O)c2c(C)nn(C)c2F)C2CC2)cc1 [Compound 263]	≥ 70	≥ 70		
